Eleven compounds from US8426169B2, “Glycosylate derivatives of mithramycin, method of preparation and uses thereof” (University of Kentucky Research Foundation, priority 2007, dated 2013) can be followed below.

Where two headings read alike, the source gives them in different places.

What all share (assay type): cell-based
In assay [1] the test system is A549 (lung). Description: SRB colorimetric cell growth and viability assay, A549. Particulars: 48 hours of exposure, read-out: GI50, concentration at which the compound assayed inhibits 50% of the cell growth compared to non-treated cells.
In assay [2] the test system is MDA-MB-231 (breast). Description: SRB colorimetric cell growth and viability assay, MDA-MB-231. Particulars: 48 hours of exposure, read-out: GI50, concentration at which the compound assayed inhibits 50% of the cell growth compared to non-treated cells.
The test system of assay [3] is HT29 (colon). Description: SRB colorimetric cell growth and viability assay, HT29. Conditions: read-out: GI50, concentration at which the compound assayed inhibits 50% of the cell growth compared to non-treated cells.
Setting [4] is: Homo sapiens, HT-29, 48 hours of exposure.

For the compound `CO[C@H](C(=O)[C@@H](O)[C@@H](C)O)[C@@H]1Cc2cc3cc(O[C@H]4C[C@@H](O[C@H]5C[C@@H](O)[C@H](O)C(C)O5)[C@H](O)C(C)O4)c(C)c(O)c3c(O)c2C(=O)[C@H]1O[C@H]1C[C@@H](O[C@H]2C[C@@H](O[C@H]3C[C@@H](O)[C@H](O)C(C)O3)[C@@H](O)C(C)O2)[C@H](O)C(C)O1` (stereo partly drawn) [formula VIII], the values for the GI50 in assay [1] (Homo sapiens), in assay [2] (Homo sapiens) and in assay [3] (setting [4]) were 190 nM, 230 nM and 270 nM, respectively.

With `CO[C@H](C(=O)[C@@H](O)[C@@H](C)O)[C@@H]1Cc2cc3cc(O[C@H]4C[C@@H](O[C@H]5C[C@@H](O)[C@H](O)C(C)O5)[C@H](O)C(C)O4)c(C)c(O)c3c(O)c2C(=O)[C@H]1O[C@H]1C[C@@H](O[C@H]2C[C@H](O[C@H]3C[C@](C)(O)[C@H](O)C(C)O3)[C@@H](O)C(C)O2)[C@H](O)C(C)O1` (stereo partly drawn) [formula IX, deoliosyl-3C-α-L-digitoxosyl-MTM], the GI50 in assay [1] (Homo sapiens) was 2670 nM; in assay [2] (Homo sapiens) it was 1940 nM; in assay [3] (setting [4]), 3870 nM.

In the case of `CO[C@H](C(=O)[C@@H](O)[C@@H](C)O)[C@@H]1Cc2cc3cc(O[C@H]4C[C@@H](O[C@H]5C[C@@H](O)[C@H](O)C(C)O5)[C@H](O)C(C)O4)c(C)c(O)c3c(O)c2C(=O)[C@H]1O[C@H]1C[C@@H](O[C@H]2C[C@](C)(O)[C@H](O)C(C)O2)[C@H](O)C(C)O1` (stereo partly drawn) [formula X, deoliosyl-3C-β-D-mycarosyl-MTM], the GI50 in assay [1] (Homo sapiens) came out at 480 nM; in assay [2] (Homo sapiens), 370 nM; in assay [3] (setting [4]), 930 nM.

Consider “deoliosyl-demycarosyl-3C-β-D-boivinosyl-MTM [formula XVII]”, for which the GI50 is greater than 10000 nM in assay [1], 3720 nM in assay [2] and greater than 10000 nM in assay [3] (48 hours of exposure).

As to `CO[C@H](C(=O)[C@@H](O)[C@@H](C)O)[C@@H]1Cc2cc3cc(O[C@H]4CC[C@H](O)C(C)O4)c(C)c(O)c3c(O)c2C(=O)[C@H]1O[C@H]1C[C@@H](O[C@H]2C[C@@H](O[C@H]3C[C@](C)(O)[C@H](O)C(C)O3)[C@@H](O)C(C)O2)[C@H](O)C(C)O1` (stereo partly drawn) [formula XIII], the GI50 worked out at 1490 nM in assay [1] (Homo sapiens), 1380 nM in assay [2] (Homo sapiens) and 3190 nM in assay [3] (setting [4]).

As for “6-dediolivosyl-6-β-D-amicetosyl-deoliosyl-3C-β-D-olivosyl-MTM [formula XXI]”, the GI50 in assay [1] was found to be 440 nM; in assay [2], 470 nM; in assay [3] (48 hours of exposure), 940 nM.

Turning to “deoliosyl-demycarosyl-3C-β-D-olivosyl-3D-β-D-digitoxosyl-MTM [formula XIX]”, the GI50 in assay [1] was 910 nM; in assay [2] it was 690 nM; in assay [3] (48 hours of exposure) it was 5980 nM.

Regarding `CO[C@H](C(=O)[C@@H](O)[C@@H](C)O)[C@@H]1Cc2cc3cc(O[C@H]4C[C@@H](O[C@H]5C[C@@H](O)[C@H](O)C(C)O5)[C@H](O)C(C)O4)c(C)c(O)c3c(O)c2C(=O)[C@H]1O[C@H]1C[C@@H](O[C@H]2C[C@@H](O)[C@@H](O)C(C)O2)[C@H](O)C(C)O1` (stereo partly drawn) [formula XII, demycarosyl-MTM], the GI50 in assay [1] (Homo sapiens) was 1810 nM; in assay [2] (Homo sapiens), 1280 nM; in assay [3] (setting [4]), greater than 10000 nM.

“6-dediolivosyl-6-β-D-amicetosyl-deoliosyl-demycarosyl-3C-β-D-boivinosyl-MTM [formula XVIII]”: the GI50 was found to be 750 nM in assay [1], 400 nM in assay [2] and 2010 nM in assay [3] (48 hours of exposure).

With “6-dediolivosyl-6-β-D-amicetosyl-deoliosyl-demycarosyl-3C-β-D-olivosyl-3D-β-D-digitoxosyl-MTM [formula XX]”, the GI50 in assay [1], in assay [2] and in assay [3] (48 hours of exposure) was greater than 10000 nM throughout.

Regarding `CO[C@H](C(=O)[C@@H](O)[C@@H](C)O)[C@@H]1Cc2cc3cc(O[C@H]4C[C@@H](O)[C@H](O)C(C)O4)c(C)c(O)c3c(O)c2C(=O)[C@H]1O[C@H]1C[C@@H](O[C@H]2C[C@@H](O[C@H]3C[C@](C)(O)[C@H](O)C(C)O3)[C@@H](O)C(C)O2)[C@H](O)C(C)O1` (stereo partly drawn) [formula XI, 3A-deolivosyl-MTM], the GI50 in assay [1] (Homo sapiens) is 750 nM; in assay [2] (Homo sapiens), 450 nM; in assay [3] (setting [4]) it was 710 nM.
